Experiments:
[1] = target: T1, human FGFR3 wild type enzyme (cytoplasmic domain) (Homo sapiens, UniProt P22607); assay: FGFR3 wild type mobility shift assay (enzymatic assay); format: biochemical; details: 75 μM ATP, 50 minutes at 30° C., Caliper EZ reader II
T1 construct: human FGFR3 wild type enzyme (cytoplasmic domain, from Carna Biosciences); purchased Carna Biosciences
Summary of the method: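 Cytoplasmic domain of human wild-type FGFR3 (0.04 ng/μL) with 75 μM ATP and 1 μM FL-peptide 30, pH 7.4 HEPES/MgCl2 buffer, 1% DMSO, 50 min at 30 °C, EDTA-stopped. Substrate-product conversion read by mobility shift. IC50, pIC50 and Hill slope from 10-point 4-fold dilutions starting at 10 μM.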

[2] = target: T2, human FGFR3 V555M enzyme (cytoplasmic domain carrying V555M mutation) (Homo sapiens, UniProt P22607, V555M); assay: FGFR3 V555M mobility shift assay (enzymatic assay); format: biochemical; details: 30 μM ATP, 45 minutes at 30° C., Caliper EZ reader II
T2 construct: human FGFR3 V555M enzyme (cytoplasmic domain carrying V555M mutation, from Carna Biosciences); purchased Carna Biosciences
T2 sequence (P22607 397-806 V555M limits assumed): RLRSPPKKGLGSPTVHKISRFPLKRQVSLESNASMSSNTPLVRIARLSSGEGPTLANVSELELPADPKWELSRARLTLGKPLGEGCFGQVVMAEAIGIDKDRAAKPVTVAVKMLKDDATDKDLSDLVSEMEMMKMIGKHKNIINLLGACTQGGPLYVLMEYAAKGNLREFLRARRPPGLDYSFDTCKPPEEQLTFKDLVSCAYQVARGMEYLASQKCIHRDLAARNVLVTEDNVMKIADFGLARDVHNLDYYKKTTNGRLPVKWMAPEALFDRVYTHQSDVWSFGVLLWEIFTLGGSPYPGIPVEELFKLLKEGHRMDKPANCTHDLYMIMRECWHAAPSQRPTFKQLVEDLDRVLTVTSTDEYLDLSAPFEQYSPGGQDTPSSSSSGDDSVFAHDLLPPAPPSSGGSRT
Summary of the method: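 Cytoplasmic-domain FGFR3 V555M (0.04 ng/μL) with 30 μM ATP and 1 μM FL-peptide 30 in HEPES pH 7.4/MgCl2/Brij35/DTT, 1% DMSO, 45 min at 30 °C, EDTA-stopped. Mobility-shift read of substrate-product conversion; 10-point 4× dilution from 10 μM fitted for IC50/pIC50.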

[3] = system: NIH/3T3 cells transfected with the same control vector; assay: NIH/3T3 mock cell proliferation assay (counter assay, general toxicity); format: cell-based; details: Mus musculus, NIH3T3, 72 h, 72-hr incubation, CellTiter Glo, starting with 30 μM; counter assay for general toxicity; read-out: NIH/3T3 MOCK CTG (IC50)
Summary of the method: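 Control-vector NIH/3T3 cells, 30,000/well in DMEM with 10% FBS, exposed 72 h at 37 °C to compound (9 points, 3-fold from 30 μM, 0.3% DMSO). CellTiter-Glo luminescence normalized to survival %; IC50, pIC50 and Hill slope from concentration-response fit.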

[4] = target: T3, NIH/3T3 cells overexpressing FGFR3 WT-TACC3 fusion protein (Homo sapiens, UniProt P22607); assay: NIH/3T3 FGFR3 WT-TACC3 cell proliferation assay; format: cell-based; details: 72-hr incubation, CellTiter Glo, starting with 10 μM; read-out: NIH/3T3 FGFR3 WT-TACC3 CTG (IC50)
T3 construct: NIH/3T3 FGFR3 WT-TACC3 CTG (IC50); other: 72-hr incubation, CellTiter Glo, starting with 10 μM; fused on or other part: Q9Y6A5 (Transforming acidic coiled-coil-containing protein 3)
T3 sequence (P22607 whole entry, change not shown, the tested form may be a part): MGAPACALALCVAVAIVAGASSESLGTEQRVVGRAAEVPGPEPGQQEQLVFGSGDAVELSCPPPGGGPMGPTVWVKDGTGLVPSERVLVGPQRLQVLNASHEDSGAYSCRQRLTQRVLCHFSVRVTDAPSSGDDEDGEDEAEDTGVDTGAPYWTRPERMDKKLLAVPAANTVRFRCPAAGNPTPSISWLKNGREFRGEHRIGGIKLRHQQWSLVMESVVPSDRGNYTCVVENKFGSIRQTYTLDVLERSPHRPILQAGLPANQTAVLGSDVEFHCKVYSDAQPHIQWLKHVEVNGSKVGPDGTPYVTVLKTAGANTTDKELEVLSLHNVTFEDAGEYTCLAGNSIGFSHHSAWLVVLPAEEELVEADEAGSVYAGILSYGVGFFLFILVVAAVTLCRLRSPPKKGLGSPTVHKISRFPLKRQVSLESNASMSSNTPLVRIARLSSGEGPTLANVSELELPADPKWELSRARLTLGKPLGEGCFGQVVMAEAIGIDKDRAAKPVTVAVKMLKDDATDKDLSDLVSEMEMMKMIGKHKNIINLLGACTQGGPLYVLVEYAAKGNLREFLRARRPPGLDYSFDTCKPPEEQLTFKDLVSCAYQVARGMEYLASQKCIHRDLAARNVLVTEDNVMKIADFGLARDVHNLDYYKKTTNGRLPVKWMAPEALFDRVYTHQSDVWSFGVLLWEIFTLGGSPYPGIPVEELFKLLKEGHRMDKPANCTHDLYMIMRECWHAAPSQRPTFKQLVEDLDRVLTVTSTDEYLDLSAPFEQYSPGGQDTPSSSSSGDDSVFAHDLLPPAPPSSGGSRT
Summary of the method: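 Cells seeded overnight, then exposed 72 h at 37 °C to compound in 9-point 4-fold dilutions from 10 μM (0.1% DMSO final). Viability read by CellTiter-Glo luminescence, normalized to survival %; IC50, pIC50 and Hill slope from concentration-response fit.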

[5] = target: T4, NIH/3T3 cells overexpressing FGFR3 V555M-TACC3 fusion protein (Homo sapiens, UniProt P22607, V555M, cells depend on it); assay: NIH/3T3 FGFR3 V555M-TACC3 cell proliferation assay; format: cell-based; details: 72-hr incubation, CellTiter Glo, starting with 10 μM; read-out: NIH/3T3 FGFR3 V555M-TACC3 CTG (IC50)
T4 construct: NIH/3T3 FGFR3 V555M-TACC3 CTG (IC50); other: 72-hr incubation, CellTiter Glo, starting with 10 μM; fused on or other part: Q9Y6A5 (Transforming acidic coiled-coil-containing protein 3)
T4 sequence (P22607 whole entry V555M, the tested form may be a part): as the sequence (P22607 whole entry, change not shown, the tested form may be a part) above, with V555M counted along it
Summary of the method: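 NIH/3T3 cells overexpressing FGFR3 V555M-TACC3 fusion, 30,000/well in DMEM/10% FBS, treated for 72 h at 37 °C with 9 doses (4× dilutions from 10 μM top, 0.1% DMSO). CellTiter-Glo luminescence normalised to % survival; IC50, pIC50 and Hill slope from concentration-response fits.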

[6] = target: T5, human FGFR3 V555L enzyme (cytoplasmic domain carrying V555L mutation) (Homo sapiens, UniProt P22607, V555L); assay: FGFR3 V555L mobility shift assay (enzymatic assay); format: biochemical; details: 40 μM ATP, 50 minutes at 30° C., Caliper EZ reader II
T5 construct: human FGFR3 V555L enzyme (cytoplasmic domain carrying V555L mutation, from Carna Biosciences); purchased Carna Biosciences
T5 sequence (P22607 397-806 V555L limits assumed): as the sequence (P22607 397-806 V555M limits assumed) above, with M159L counted along it
Experimental: FGFR3 V555L Mobility Shift Assay (Enzymatic Assay)
In a final reaction volume of 25 μL, 0.04 ng/μL human FGFR3 V555L enzyme (cytoplasmic domain carrying V555L mutation, from Carna Biosciences) was incubated with 40 μM ATP, 1 μM FL-peptide 30 substrate and 250 nL of testing compound (1% DMSO final) in assay buffer (100 mM HEPES pH 7.4, 10 mM MgCl2, 0.003% Brij35, 1 mM DTT). After incubation for 50 minutes at 30° C. the reaction was stopped with 10 μL of 0.5M EDTA pH 8.0, and then 25 μL of reaction mixture was transferred to reading plate and measured on Caliper EZ reader II. The substrate-product conversion rate was used as raw data for normalization and concentration-response curve (10 dose points with 4× serial dilution, starting with 10 μM) was plotted using Prism to calculate IC50 (M), pIC50 (−log IC50) and HillSlope value.

T1 sequence (P22607 397-806 limits assumed): as the sequence (P22607 397-806 V555M limits assumed) above, with M159V counted along it

SMILES	IC50 [1] [nM]	IC50 [2] [nM]	IC50 [3] [nM]	GI50 [4] [nM]	GI50 [5] [nM]	IC50 [6] [nM]
C[C@@H](Nc1c(-c2nc3ccc(N4CCOCC4)cc3[nH]2)c(=O)[nH]c2ccccc12)c1ncccn1 [Compound 3, (R)-3-(6-morpholino-1H-benzo[d]imidazol-2-yl)-4-((1-(pyrimidin-2-yl)ethyl)-amino)quinolin-2(1H)-one]	585	204	11000	58.5	41.8	–
C[C@H](Nc1c(-c2nc3ccc(N4CCC(C(=O)O)CC4)cc3[nH]2)c(=O)[nH]c2ccccc12)c1ccccn1 [Compound 6, (S)-1-(2-(2-Oxo-4-((1-(pyridin-2-yl)ethyl)amino)-1,2-dihydroquinolin-3-yl)-H-benzo[d]imidazol-6-yl)piperidine-4-carboxylic acid 0.5formate]	0.809	0.484	795	32.3	61.7	–
COC(=O)C1CCN(c2ccc3nc(-c4c(N[C@@H](C)c5ccccn5)c5ccccc5[nH]c4=O)[nH]c3c2)CC1 [Compound 7, (S)-Methyl-1-(2-(2-oxo-4-((1-(pyridin-2-yl)ethyl)amino)-1,2-dihydroquinolin-3-yl)-1H-benzo[d]imidazol-6-yl)piperidine-4-carboxylate]	1.83	1.3	858	19.8	99.7	–
C[C@H](Nc1c(-c2nc3cc(C(F)(F)F)c(N4CCN(C)CC4)cc3[nH]2)c(=O)[nH]c2ccccc12)c1ccccn1 [Compound 14, (S)-3-(6-(4-methylpiperazin-1-yl)-5-(trifluoromethyl)-1H-benzo[d]imidazol-2-yl)-4-((1-(pyridin-2-yl)ethyl)amino)quinolin-2(1H)-one]	3.38	2.15	3010	52.2	141	–
C[C@H](Nc1c(-c2nc3ccc(N4CCN(C)C(=O)C4)cc3[nH]2)c(=O)[nH]c2ccccc12)c1ccccn1 [Compound 15, (S)-3-(6-(4-methyl-3-oxopiperazin-1-yl)-1H-benzo[d]imidazol-2-yl)-4-((1-(pyridin-2-yl)ethyl)amino)quinolin-2(1H)-one]	0.851	0.351	1190	12.4	24.9	–
C[C@H](Nc1c(-c2nc3ccc(N4CCOCC4)cc3[nH]2)c(=O)[nH]c2c(F)cccc12)c1ccccn1 [Compound 16, (S)-8-fluoro-3-(6-morpholino-1H-benzo[d]imidazol-2-yl)-4-((1-(pyridin-2-yl)ethyl)-amino)quinolin-2(1H)-one]	16.6	2.66	2600	253	274	–
C[C@H](Nc1c(-c2nc3ccc(N4CCOCC4)cc3[nH]2)c(=O)[nH]c2ccc(F)cc12)c1ccccn1 [Compound 17, (S)-6-fluoro-3-(6-morpholino-1H-benzo[d]imidazol-2-yl)-4-((1-(pyridin-2-yl)ethyl)-amino)quinolin-2(1H)-one]	4.89	0.997	661	58.7	114	–
C[C@H](Nc1c(-c2nc3cc(C(F)(F)F)c(NC4CCN(C)CC4)cc3[nH]2)c(=O)[nH]c2ccccc12)c1ccccn1 [Compound 18, (S)-3-(6-((1-methylpiperidin-4-yl)amino)-5-(trifluoromethyl)-1H-benzo[d]imidazol-2-yl)-4-((1-(pyridin-2-yl)ethyl)amino)quinolin-2(1H)-one]	1.35	1.35	733	56.8	87.8	–
C[C@H](Nc1c(-c2nc3cc(C(F)(F)F)c(N(C)C4CCN(C)CC4)cc3[nH]2)c(=O)[nH]c2ccccc12)c1ccccn1 [Compound 19, (S)-3-(6-(methyl(1-methylpiperidin-4-yl)amino)-5-(trifluoromethyl)-1H-benzo[d]-imidazol-2-yl)-4-((1-(pyridin-2-yl)ethyl)amino)quinolin-2(1H)-one]	0.367	0.358	2450	46.1	66.5	–
C[C@H](Nc1c(-c2nc3ccc(C(=O)N4CCOCC4)cc3[nH]2)c(=O)[nH]c2ccccc12)c1ccccn1 [Compound 20, (S)-3-(6-(morpholine-4-carbonyl)-1H-benzo[d]imidazol-2-yl)-4-((1-(pyridin-2-yl)-ethyl)amino)quinolin-2(1H)-one]	0.826	0.49	952	23.5	17.1	–
Cc1cc(N2CCOCC2)cc2[nH]c(-c3c(N[C@@H](C)c4ncccn4)c4ccccc4[nH]c3=O)nc12 [Compound 46, (S)-3-(4-methyl-6-morpholino-1H-benzo[d]imidazol-2-yl)-4-((1-(pyrimidin-2-yl)ethyl)-amino)quinolin-2(1H)-one]	1.17	0.742	3910	19.9	15.9	–
Cc1c(N2CCOCC2)ccc2nc(-c3c(N[C@@H](C)c4ncccn4)c4ccccc4[nH]c3=O)[nH]c12 [Compound 47, (S)-3-(7-methyl-6-morpholino-1H-benzo[d]imidazol-2-yl)-4-((1-(pyrimidin-2-yl)-ethyl)amino)quinolin-2(1H)-one]	0.67	0.27	547	16	12.3	–
C[C@H](Nc1c(-c2nc3ccc(N4CCOCC4)cc3[nH]2)c(=O)[nH]c2ccccc12)c1ccccn1 [Compound 55, (S)-3-(6-Morpholino-1H-benzo[d]imidazol-2-yl)-4-((1-(pyridin-2-yl)ethyl)amino)-quinolin-2(1H)-one]	1.76	0.538	460	–	34.3	1.25
CC(C)N1CCN(c2ccc3nc(-c4c(N[C@@H](C)c5ccccn5)c5ccccc5[nH]c4=O)[nH]c3c2)CC1 [Compound 56, (S)-3-(6-(4-isopropylpiperazin-1-yl)-1H-benzo[d]imidazol-2-yl)-4-((1-(pyridin-2-yl)-ethyl)amino)quinolin-2(1H)-one]	0.128	0.0676	770	–	10.7	0.135
C[C@H](Nc1c(-c2nc3ccc(OC4CCN(C)CC4)cc3[nH]2)c(=O)[nH]c2ccccc12)c1ccccn1 [Compound 64, (S)-3-(6-((1-Methylpiperidin-4-yl)oxy)-1H-benzo[d]imidazol-2-yl)-4-((1-(pyridin-2-yl)-ethyl)amino)quinolin-2(1H)-one]	0.369	0.263	–	–	–	0.504
